Data from patent US5665754A, “Substituted pyrrolidines” (Glaxo Wellcome Inc., priority 1993, dated 1997).

Test system: TNFα secretion from murine elicited peritoneal macrophages
Assay: Assay for inhibition of LPS-induced TNFα production
Type: cell-based, mouse
Conditions: preliminary experiments
Source text: In order to assess the ability of a compound to reduce TNFα secretion in elicited mouse peritoneal macrophages, the following protocol was employed. […] (See Scales, W. E., S. W. Chensuc, I. Otterness and S. L. Kunkel, 1989, Regulation of monokine gene expression: Prostaglandin E2 suppresses tumor necrosis factor but not interleukin-1a or b-mRNA and cell-associated bioactivity, J. Leukocytc Biology 45:416-421.). (See also Renz, H., J-H. Gong, A. Schmidt, M. Nain and Diethard Gemsa, 1988, Release of tumor necrosis factor-a from macrophages. Enhancement and suppression are dose-dependently regulated by prostaglandin E2 and cyclic nucleotides, J. Immunol. 1 41:2388-2393). […] (See Noel, L. S., M. Verghese, K. M. Connelly, L. J. Sekut and S. A. Stimpson, 1992, Type IV-specific phosphodiesterase (PDE) inhibitors suppress murine TNFα expression in vitro and in vivo-(abstract)--6th International Conference, Inflammation Research Association). TNFα secretion from murine elicited peritoneal macrophages was used as a readout for a compound's ability to raise cAMP, and/or inhibit phosphodiesterase within a cell.
Mice (female C3H mice, 15-20 gm body weight) were injected intraperitoneally with 2 mL of 5 mM sodium periodate solution. […] TNFα protein in the supernatant fluids was measured using a commercially available enzyme-linked immunosorbant assay (ELISA) (Genzyme).

**Q.** For `COc1ccc(C2CNC(=O)C2)cc1OC1CCCC1` (stereo not shown) [rolipram], which “LPS induced TNFα secretion from murine macrophages” value is on record?
**A.** Its value is “inhibited”.
